The values that follow come from patent US11131677B2 (University of Washington, priority 2018, dated 2021).

A short description of data set [1]: Oral testosterone pharmacokinetics and serum metabolite profile (LC-MS/MS) in men with acyline-induced experimental hypogonadism, with and without dutasteride. In kind it is in vivo, human. The settings on record: for CL/F: male, human, oral; for CL/F / AUC 0-24 h / Cmax / Tmax / t½: serum. As for the experimental part: T emulsion in sesame oil, mixed with milk, was administered orally to human subjects with acyline-induced experimental hypogonadism. The blood samples were collected and the serum was isolated and stored in −80° C. Steroids and their metabolites were extracted from serum using protein precipitation followed by solid-phase extraction and analyzed by UPLC coupled with SCIEX 6500 MS/MS.
Clinical study design is discussed below. All subjects provided written, informed consent prior to any study procedures. The study was approved by the University of Washington (UW) Investigational Review Board Committee.
While study was conducted with 200, 400 and 800 mg T dose, only T200 and T800 were quantified. […] Samples were mixed for 1 min by vortex mixing, and then centrifuged for 10 min at 3500×g at 4° C. […] Samples (2 mL) were loaded onto the cartridges and flow through was discarded.
Data were acquired by Analyst 1.6 software.

For data set [2] the following is noted: oral T, humans; cited from earlier work.
A further data set deals with T1, UGT2B17 (Homo sapiens, UniProt O75795).
T1 sequence (O75795 24-530): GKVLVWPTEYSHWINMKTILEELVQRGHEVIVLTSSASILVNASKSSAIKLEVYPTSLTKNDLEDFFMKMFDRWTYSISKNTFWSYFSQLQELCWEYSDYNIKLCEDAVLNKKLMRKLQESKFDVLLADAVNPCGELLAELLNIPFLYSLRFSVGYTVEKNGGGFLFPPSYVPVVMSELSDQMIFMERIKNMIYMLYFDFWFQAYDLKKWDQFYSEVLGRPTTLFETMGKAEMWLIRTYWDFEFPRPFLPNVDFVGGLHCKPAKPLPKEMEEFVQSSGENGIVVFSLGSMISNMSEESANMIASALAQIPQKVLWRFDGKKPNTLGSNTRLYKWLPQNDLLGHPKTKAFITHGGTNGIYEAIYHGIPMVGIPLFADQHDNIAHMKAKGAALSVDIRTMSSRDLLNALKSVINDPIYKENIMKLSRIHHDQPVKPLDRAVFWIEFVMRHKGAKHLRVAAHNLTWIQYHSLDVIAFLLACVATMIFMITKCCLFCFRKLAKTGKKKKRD
The settings on record: scaled by absolute UGT2B abundance in the intestine.

The subject of another data set is T production. The settings on record: normal men, single injection 300 μg/kg subcutaneous; cited from earlier work.

As usually defined, the CL/F is clearance divided by bioavailability, as obtained after extravascular dosing. As a reminder, the Cmax is the highest concentration seen after dosing. A word on the Tmax: it is the time at which the peak concentration occurs. As usually defined, the t½ is the time needed for the level to fall by half in the phase considered.

SMILES strings stand for the structures. Non-standard residues stand in square brackets, D forms with d. Residues, ends and D or L forms follow the SMILES beside them. dPhe(4-NH2) = Nc1ccc(C[C@@H](N)C(=O)O)cc1; dPhe(4-Cl) = N[C@H](Cc1ccc(Cl)cc1)C(=O)O; Phe(4-NH2) = Nc1ccc(C[C@H](N)C(=O)O)cc1; d2Nal = N[C@H](Cc1ccc2ccccc2c1)C(=O)O; Lys(iPr) = CC(C)NCCCC[C@H](N)C(=O)O; d3Pal = N[C@H](Cc1cccnc1)C(=O)O Some results are limits rather than exact numbers.

In the case of `C[C@]12CC[C@H]3[C@@H](CCC4=CC(=O)CC[C@@]43C)[C@@H]1CC[C@@H]2O` [T, Testosterone, reference compound], in data set [1] (200 mg T dose), the “Change in serum T levels with dutasteride” value was “no significant increase”. The “Increase in circulating T concentrations” value in data set [1] (4-fold increase in dose (200 to 800 mg)) was 2 fold. The apparent clearance CL/F was 106000 mL/min in data set [1] (200 mg, T200); 259000 mL/min in data set [1] (800 mg, T800); 120000 mL/min in data set [1] (T200 + D); 147000 mL/min in data set [1] (T800 + D). Further, the “AUC 0-24 h” value in data set [1] (T200) came out at 81.6 nM·h; in data set [1] (T200 + D), 84.7 nM·h; in data set [1] (T800) it was 168.9 nM·h; in data set [1] (T800 + D), 293.8 nM·h. The highest concentration (Cmax) worked out at 0.006 µM in data set [1] (T200), 0.0088 µM in data set [1] (T200 + D), 0.0168 µM in data set [1] (T800) and 0.033 µM in data set [1] (T800 + D). In addition, the Tmax in data set [1] (T200) was 4 h; in data set [1] (T800 + D), 2 h. In addition, the t½ was found to be 12.0 h in data set [1] (T200 (200 mg oral T)), 7.0 h in data set [1] (T200 + D (200 mg oral T with dutasteride)), 5.3 h in data set [1] (T800 (800 mg oral T)) and 5.7 h in data set [1] (T800 + D (800 mg oral T with dutasteride)). Also, the Oral bioavailability in data set [2] was 2-8%. For the same molecule, the “Contribution of UGT2B17 to intestinal glucuronidation” value on UGT2B17 stood at 100%.

For `CC(=O)Nc1ccc(C[C@H](NC(=O)[C@H](CO)NC(=O)[C@@H](Cc2cccnc2)NC(=O)[C@@H](Cc2ccc(Cl)cc2)NC(=O)[C@@H](Cc2ccc3ccccc3c2)NC(C)=O)C(=O)N[C@H](Cc2ccc(NC(C)=O)cc2)C(=O)N[C@@H](CC(C)C)C(=O)N[C@@H](CCCCNC(C)C)C(=O)N2CCC[C@H]2C(=O)N[C@H](C)C(N)=O)cc1` [acyline] (Ac-[d2Nal][dPhe(4-Cl)][d3Pal]S[Phe(4-NH2)](Ac)[dPhe(4-NH2)](Ac)L[Lys(iPr)]P[dA]-NH2), the “Duration of suppression of T production” value in the data set with T production is no less than 15 days.
